Assay results reported in patent US11083717B2, “Compositions and methods for drug sensitization of parasites” (The Texas A&M University System, priority 2015, dated 2021).
Values after ≈ are worked out from the molar mass of the structure shown. Read-outs that look alike come from different tables or passages of the source.

Key:
Cryptosporidium parvum = conditions: mouse, in vivo
Procedure: The anticryptosporidial activity of the in vitro inhibitors was assessed in the IL-12 knockout mouse model that resembles the acute human disease (Ehigiator H N, Romagnoli P, Borgelt K, Fernandez M, McNair N, Secor W E, Mead J R. 2005. Mucosal cytokine and antigen-specific responses to Cryptosporidium parvum in IL-12p40 KO mice. Parasite Immunol. 27: 17-28; Campbell L D, Stewart J N, Mead J R. 2002. Susceptibility to Cryptosporidium parvum infections in cytokine- and chemokine-receptor knockout mice. J. Parasitol. 88:1014-1016). The protocol was approved by the Institutional Animal Care and Use Committees of Emory University, the AtlantaVAMedical Center, and Brandeis University. Mice (6 to 10 per group) were inoculated with 1,000 purified CP oocysts (Iowa isolate, from cattle). Treatment by gavage began 4 h postinfection with either vehicle (5% dimethyl sulfoxide (DMSO) in canola oil), 50-100 mg/kg compound, or 2,000 mg/kg paromomycin. Compounds were given for 7 days, and mice were sacrificed on day 8 (peak infection). Parasite load was quantified by fluorescence-activated cell sorting (FACS) assays for the presence of the oocysts in the feces at days 0, 4, and 7. Fecal pellets from individual mice were routinely collected daily and homogenized in adjusted volumes of 2.5% potassium dichromate. Samples were processed individually. Aliquots (200 ul) of vortexed samples were processed over microscale sucrose gradients as previously described (Arrowood M J, Hurd M R, Mead J R. 1995. A new method for evaluating experimental cryptosporidial parasite loads using immunofluorescent flowcytometry. J. Parasitol. 81:404-409). The oocyst-containing fraction was collected, washed, and treated with monoclonal antibody (OW5O-FITC) for 20 min. Samples were adjusted to 600 ul, and a portion (100 ul) was assayed with a 102-s sampling interval using logical gating of forward/side scatter and OW5O-FITC fluorescence signal on a Becton, Dickinson FACScan flow cytometer. Flow cytometry data were evaluated by analysis of variance (KaleidaGraph (Synergy Software, Reading Pa.); Microsoft Excel (Microsoft Corporation, Redmond, Wash.)).
NZ-366 (50 mg/kg) and NZ-369 (100 mg/kg) were administered via gavage in a single daily dose to IL-12 knockout mice that were infected with 1,000 CP oocysts. Additional control groups included those treated with single daily doses of vehicle, and paromomycin (Prm) (2,000 mg/kg), by oral gavage.

human fibroblast = test: in vitro
S. cerevisiae = test: in vitro; conditions: Saccharomyces cerevisiae
[1] = tested on: Cryptosporidium parvum (CP); test: Cell culture model of Cryptosporidium parvum infection in HCT-8 cells, real-time qRT-PCR; format: cell-based; conditions: Cryptosporidium parvum; for inhibition at 0.25 µM: HCT-8, @0.25 uM
Summary of the method: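 HCT-8 monolayers were infected with C. parvum Iowa oocysts (1.5×10^4/well) for 3 h, then compounds were added after medium exchange and cells were incubated 41 h more (44 h total, 37 °C). Parasite Cp18S rRNA was measured by one-step SYBR qRT-PCR of lysates, normalized to host Hs18S, and % inhibition at the stated µM was derived from a standard curve.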

[2] = HCLint in vitro intrinsic clearance, human (HLM); format: in vitro ADME
[3] = MCLint in vitro intrinsic clearance, mouse (MLM); format: in vitro ADME
[4] = target: Human ether-a-go-go-related gene (hERG) (Homo sapiens, UniProt Q12809); test: hERG test (potential cardiotoxicity); format: biochemical; conditions: read-out: hERG (Abbvie)
[5] = 44 h, CP in HCT-8 cells, 44 h infection, 50% reduction of parasite growth vs control, NA: not active, read-out: MIC50

Human ether-a-go-go-related gene (hERG), sequence (Q12809 whole entry): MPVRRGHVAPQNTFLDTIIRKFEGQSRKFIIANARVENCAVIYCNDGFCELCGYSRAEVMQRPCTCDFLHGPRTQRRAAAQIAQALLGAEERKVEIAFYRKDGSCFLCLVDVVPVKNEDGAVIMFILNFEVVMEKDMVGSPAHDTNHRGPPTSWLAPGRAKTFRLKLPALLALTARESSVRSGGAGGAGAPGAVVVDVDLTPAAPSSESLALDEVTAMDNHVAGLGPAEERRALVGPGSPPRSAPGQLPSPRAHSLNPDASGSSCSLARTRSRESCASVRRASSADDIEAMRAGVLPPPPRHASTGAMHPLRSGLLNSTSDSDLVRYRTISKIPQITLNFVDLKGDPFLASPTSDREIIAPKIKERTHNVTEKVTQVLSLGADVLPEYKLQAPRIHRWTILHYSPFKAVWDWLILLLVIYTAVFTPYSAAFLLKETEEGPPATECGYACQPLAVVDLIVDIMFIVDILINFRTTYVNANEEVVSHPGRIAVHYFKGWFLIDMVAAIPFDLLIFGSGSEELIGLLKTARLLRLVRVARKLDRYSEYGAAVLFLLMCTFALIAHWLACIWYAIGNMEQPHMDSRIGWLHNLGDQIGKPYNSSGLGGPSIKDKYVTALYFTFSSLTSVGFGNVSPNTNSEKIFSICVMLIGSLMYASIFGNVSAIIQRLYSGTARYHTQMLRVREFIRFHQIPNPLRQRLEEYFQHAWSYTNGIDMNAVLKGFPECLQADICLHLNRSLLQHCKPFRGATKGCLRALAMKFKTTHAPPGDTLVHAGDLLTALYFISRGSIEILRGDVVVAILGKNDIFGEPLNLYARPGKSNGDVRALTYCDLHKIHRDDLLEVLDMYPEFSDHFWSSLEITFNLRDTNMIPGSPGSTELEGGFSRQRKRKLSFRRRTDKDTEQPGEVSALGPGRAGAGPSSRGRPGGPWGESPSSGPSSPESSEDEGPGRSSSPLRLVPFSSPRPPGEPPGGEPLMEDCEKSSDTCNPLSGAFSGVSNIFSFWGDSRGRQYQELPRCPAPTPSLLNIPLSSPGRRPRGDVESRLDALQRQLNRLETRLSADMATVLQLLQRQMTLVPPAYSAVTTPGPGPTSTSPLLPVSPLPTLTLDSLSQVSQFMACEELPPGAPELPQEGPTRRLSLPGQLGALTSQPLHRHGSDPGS

SMILES | concentrations at which not toxic, human fibroblast cytotoxicity testing (human fibroblast; human) | concentrations at which not toxic, S. cerevisiae cytotoxicity testing (S. cerevisiae) | MIC50 [1, 5] | also measured
CC(C(=O)N1CCNCC1)c1ccc(Oc2nc3ccc(Cl)cc3s2)cc1 (stereo not drawn) [NZ-364, 2-{4-[(6-chloro-1,3-benzothiazol-2-yl)oxy]phenyl}-1-(piperazin-1-yl)propan-1-one] | ≥ 100 µM | ≥ 100 µM | 120 nM (≈ 0.0482 µg/mL) | effectiveness in the same type of test (IL-12 knockout mouse model) (Cryptosporidium parvum): effective
CN1CCN(C(=O)Nc2ccc(Oc3nc4ccc(Cl)cc4s3)cc2)CC1 [NZ-475, N-{4-[(6-chloro-1,3-benzothiazol-2-yl)oxy]phenyl}-4-methylpiperazine-1-carboxamide] | ≥ 100 µM | ≥ 100 µM | 60 nM (≈ 0.0242 µg/mL) | effectiveness in the same type of test (IL-12 knockout mouse model) (Cryptosporidium parvum): effective
CC(C(=O)NC1CC1)c1ccc(Oc2nc3ccc(Cl)cc3s2)cc1 (stereo not drawn) [NZ-538, 2-{4-[(6-chloro-1,3-benzothiazol-2-yl)oxy]phenyl}-N-cyclopropylpropanamide] | – | – | 54 nM (≈ 0.0201 µg/mL) | IC50 (in vitro; Saccharomyces cerevisiae): > 100 µM; IC50 (in vitro; human): > 100 µM; MIC50 ([1]; read-out: MIC50 (nM) (CP)): 54 nM (≈ 0.0201 µg/mL); HCLint (mL/min/g liver), HLM [2]: HLM = 0.7 mL/min/g liver; MCLint (mL/min/g liver), MLM [3]: MLM = 3.9 mL/min/g liver; IC50 [4]: 7.3 µM
CC(C(=O)NCCS(C)(=O)=O)c1ccc(Oc2nc3ccc(Cl)cc3s2)cc1 (stereo not drawn) [NZ-578, 2-{4-[(6-chloro-1,3-benzothiazol-2-yl)oxy]phenyl}-N-(2-methanesulfonylethyl)propanamide] | – | – | 18 nM (≈ 0.0079 µg/mL) | IC50 (in vitro; human): > 100 µM; inhibition at 31 µM ([1]; HCT-8, @31 uM, read-out: % (inhibition of CP) printed in the MIC50 (nM) (CP) column): 83%; MIC50 ([1]; read-out: MIC50 (nM) (CP)): < 30 nM
CC(C(=O)NCC(O)CO)c1ccc(Oc2nc3ccc(Cl)cc3s2)cc1 (stereo not drawn) [NZ-372, 2-{4-[(6-chloro-1,3-benzothiazol-2-yl)oxy]phenyl}-N-(2,3-dihydroxypropyl)propanamide] | – | ≥ 100 µM | 85 nM (≈ 0.0346 µg/mL) | effectiveness in the same type of test (IL-12 knockout mouse model) (Cryptosporidium parvum): effective
NC(=O)CNC(=O)Cc1ccc(Oc2nc3ccc(F)cc3s2)cc1 [NZ-438, N-(carbamoylmethyl)-2-{4-[(6-fluoro-1,3-benzothiazol-2-yl)oxy]phenyl}acetamide] | ≥ 100 µM | ≥ 100 µM | 250 to 1000 nM (≈ 0.0898 to 0.359 µg/mL) | inhibition at 0.25 µM [1]: 43%
O=C(Cc1ccc(Oc2nc3ccc(F)cc3s2)cc1)N1CCCC1 [NZ-490, 2-{4-[(6-fluoro-1,3-benzothiazol-2-yl)oxy]phenyl}-1-(pyrrolidin-1-yl)ethan-1-one] | ≥ 100 µM | ≥ 100 µM | ~250 nM (≈ 0.0891 µg/mL) | inhibition at 0.25 µM [1]: 60%
CNC(=O)C(C)c1ccc(Oc2nc3ccc(F)cc3s2)cc1 (stereo not drawn) [NZ-386, 2-{4-[(6-fluoro-1,3-benzothiazol-2-yl)oxy]phenyl}-N-methylpropanamide] | ≥ 100 µM | ≥ 100 µM | 50 to 300 nM (≈ 0.0165 to 0.0991 µg/mL) | –
CC(C(=O)NC1CCC1)c1ccc(Oc2nc3ccc(Cl)cc3s2)cc1 (stereo not drawn) [NZ-539, 2-{4-[(6-chloro-1,3-benzothiazol-2-yl)oxy]phenyl}-N-cyclobutylpropanamide] | – | – | 57 nM (≈ 0.0221 µg/mL) | IC50 (in vitro; Saccharomyces cerevisiae): > 100 µM; IC50 (in vitro; human): > 100 µM; MIC50 ([1]; read-out: MIC50 (nM) (CP)): 57 nM (≈ 0.0221 µg/mL); HCLint (mL/min/g liver), HLM [2]: HLM = 1.8 mL/min/g liver; MCLint (mL/min/g liver), MLM [3]: MLM = 4.4 mL/min/g liver; IC50 [4]: > 30 µM
O=C(Cc1ccc(Oc2nc3ccc(Cl)cc3s2)cc1)N1CCNCC1 [NZ-479, 2-{4-[(6-chloro-1,3-benzothiazol-2-yl)oxy]phenyl}-1-(piperazin-1-yl)ethan-1-one] | ≥ 100 µM | ≥ 100 µM | 500 to 1000 nM (≈ 0.194 to 0.388 µg/mL) | –
O=C(Cc1ccc(Oc2nc3ccc(F)cc3s2)cc1F)NC1CC1 [NZ-446, N-cyclopropyl-2-{2-fluoro-4-[(6-fluoro-1,3-benzothiazol-2-yl)oxy]phenyl}acetamide] | ≥ 100 µM | ≥ 100 µM | 1000 to 4000 nM (≈ 0.36 to 1.44 µg/mL) | –
NCCNC(=O)Cc1ccc(Oc2nc3ccc(F)cc3s2)cc1 [NZ-427, N-(2-aminoethyl)-2-{4-[(6-fluoro-1,3-benzothiazol-2-yl)oxy]phenyl}acetamide] | ≥ 100 µM | ≥ 100 µM | < 250 nM | inhibition at 0.25 µM [1]: 71%
O=C(Cc1ccc(Oc2nc3ccc(F)cc3s2)cc1)NCCO [NZ-426, 2-{4-[(6-fluoro-1,3-benzothiazol-2-yl)oxy]phenyl}-N-(2-hydroxyethyl)acetamide] | ≥ 100 µM | ≥ 100 µM | 250 to 1000 nM (≈ 0.0866 to 0.346 µg/mL) | –
NC(=O)Cc1ccc(Oc2nc3ccc(F)cc3s2)cc1F [NZ-484, 2-{2-fluoro-4-[(6-fluoro-1,3-benzothiazol-2-yl)oxy]phenyl}acetamide] | ≥ 100 µM | ≥ 100 µM | ~1000 nM (≈ 0.32 µg/mL) | –
CNC(=O)Cc1ccc(Oc2nc3ccc(Cl)cc3s2)cc1O [NZ-389, 2-{4-[(6-chloro-1,3-benzothiazol-2-yl)oxy]-2-hydroxyphenyl}-N-methylacetamide] | ≥ 100 µM | ≥ 100 µM | ~1100 nM (≈ 0.384 µg/mL) | –
CN1CCN(C(=O)Cc2ccc(Oc3nc4ccc(F)cc4s3)cc2)CC1 [NZ-476, 2-{4-[(6-fluoro-1,3-benzothiazol-2-yl)oxy]phenyl}-1-(4-methylpiperazin-1-yl)ethan-1-one] | ≥ 100 µM | ≥ 100 µM | 500 to 1000 nM (≈ 0.193 to 0.385 µg/mL) | –
CNC(=O)Cc1ccc(Oc2nc3ccc(F)cc3s2)cc1F [NZ-410, 2-{2-fluoro-4-[(6-fluoro-1,3-benzothiazol-2-yl)oxy]phenyl}-N-methylacetamide] | – | ≥ 100 µM | – | concentrations at which not toxic, human fibroblast cytotoxicity testing (human fibroblast): ≥ 100 µM; MIC50 ([1]; 44 h): 2000 to 10000 nM (≈ 0.669 to 3.34 µg/mL); inhibition at 10 µM ([1]; HCT-8, read-out: % inh @ (μM)): 94%
CC(C(=O)N1CCN(C)CC1)c1ccc(Oc2nc3ccc(F)cc3s2)cc1 (stereo not drawn) [NZ-466, 2-{4-[(6-fluoro-1,3-benzothiazol-2-yl)oxy]phenyl}-1-(4-methylpiperazin-1-yl)propan-1-one] | ≥ 100 µM | ≥ 100 µM | 50 to 100 nM (≈ 0.02 to 0.0399 µg/mL) | –
CN1CCN(C(=O)Cc2ccc(Oc3nc4ccc(F)cc4s3)cc2F)CC1 [NZ-467, 2-{2-fluoro-4-[(6-fluoro-1,3-benzothiazol-2-yl)oxy]phenyl}-1-(4-methylpiperazin-1-yl)ethan-1-one] | ≥ 100 µM | ≥ 100 µM | 250 to 1000 nM (≈ 0.101 to 0.403 µg/mL) | –
O=C(Cc1ccc(Oc2nc3ccc(F)cc3s2)cc1)N1CCNCC1 [NZ-472, 2-{4-[(6-fluoro-1,3-benzothiazol-2-yl)oxy]phenyl}-1-(piperazin-1-yl)ethan-1-one] | ≥ 100 µM | ≥ 100 µM | ~1000 nM (≈ 0.371 µg/mL) | –
